Measured values reported in patent US20060069132A1, “Azolecarboxamide herbicides” (priority 2004, published 2006).

Experiments:
barnyardgrass [1] = experiment: Test B pre-/postemergence herbicide test; type: in vivo, Echinochloa crus-galli; conditions: 0 = no effect, 100 = complete control, preemergence
How it was run: (§1)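 Evaluation is visual, comparing treated with control plants on a scale where 0 means no effect and 100 means full control. Treatments were preemergence, or postemergence on seedlings 2–18 cm tall, and held 13–15 days in the greenhouse.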

Surinam grass = experiment: Test B pre-/postemergence herbicide test; type: in vivo, Urochloa decumbens; conditions: for Surinam Grass plant response rating: postemergence, scale 0 (no effect) to 100 (complete control)
How it was run: (§2)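 Test chemicals in a non-phytotoxic solvent mixture with surfactant were applied preemergence to seeded species and postemergence to plants 2-18 cm tall (1- to 4-leaf stage); rice and barnyardgrass were also tested in a flooded paddy at the 2-leaf stage. Visual rating versus controls after 13-15 days in greenhouse, scale 0 (no effect) to 100 (complete control).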

cocklebur = experiment: Test B pre-/postemergence herbicide test; type: in vivo, Xanthium strumarium; conditions: for Cocklebur plant response rating: postemergence, scale 0 (no effect) to 100 (complete control)
How it was run: as §1

corn = experiment: Test B pre-/postemergence herbicide test; type: in vivo, Zea mays; conditions: for Corn plant response rating: postemergence, scale 0 (no effect) to 100 (complete control)
How it was run: as §2

large crabgrass = experiment: Test B pre-/postemergence herbicide test; type: in vivo, Digitaria sanguinalis; conditions: for Crabgrass, Large plant response rating: postemergence, scale 0 (no effect) to 100 (complete control)
How it was run: as §2

giant foxtail = experiment: Test B pre-/postemergence herbicide test; type: in vivo, Setaria faberi; conditions: for Foxtail, Giant plant response rating: postemergence, scale 0 (no effect) to 100 (complete control)
How it was run: as §2

lambsquarters = experiment: Test B pre-/postemergence herbicide test; type: in vivo, Chenopodium album; conditions: for Lambsquarters plant response rating: postemergence, scale 0 (no effect) to 100 (complete control)
How it was run: as §2

morningglory = experiment: Test B pre-/postemergence herbicide test; type: in vivo, Ipomoea coccinea; conditions: for Morningglory plant response rating: postemergence, scale 0 (no effect) to 100 (complete control)
How it was run: as §1

pigweed = experiment: Test B pre-/postemergence herbicide test; type: in vivo, Amaranthus retroflexus
How it was run: as §2

rice [2] = experiment: Test B pre-/postemergence herbicide test; type: in vivo, Oryza sativa; conditions: 0 = no effect, 100 = complete control, preemergence
How it was run: as §2

velvetleaf = experiment: Test B pre-/postemergence herbicide test; type: in vivo, Abutilon theophrasti; conditions: for Velvetleaf plant response rating: postemergence, scale 0 (no effect) to 100 (complete control)
How it was run: as §2

blackgrass = experiment: Test B postemergence herbicide test; type: in vivo, Alopecurus myosuroides; conditions: postemergence, visual rating, scale 0 (no effect) to 100 (complete control)
How it was run: (§3)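 Each value is a visual 0–100 response rating taken against controls 13 to 15 days after treatment in the greenhouse. Plants received formulated chemical postemergence at the 1- to 4-leaf stage or, in flooded paddy, at the 2-leaf stage.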

wheat = experiment: Test B postemergence herbicide test; type: in vivo, Triticum aestivum; parameters: key to Wheat plant response rating: 0 = no effect, 100 = complete control; conditions: postemergence, visual rating, scale 0 (no effect) to 100 (complete control)
How it was run: (§4)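 Postemergence plants were sprayed with formulated test chemicals at 2 to 18 cm height (1- to 4-leaf stage); paddy species were grown to the 2-leaf stage. After 13 to 15 days in a greenhouse, injury was rated visually against untreated controls on a 0–100 scale (0 = no effect, 100 = complete control).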

wild oat = experiment: Test B postemergence herbicide test; type: in vivo, Avena fatua; conditions: postemergence, visual rating, scale 0 (no effect) to 100 (complete control)
How it was run: as §4

rice [3] = experiment: Test B flooded paddy test; type: in vivo, Oryza sativa; conditions: 1000 g ai/ha, visual rating, scale 0 to 100 (0 no effect, 100 complete control), 13 to 15 days
How it was run: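 Paddy species grown to the 2-leaf stage under flooding; blackgrass sprayed postemergence at 2–18 cm (1- to 4-leaf stage). Plants kept in a greenhouse for 13 to 15 days, then visually rated against controls on 0 (no effect) to 100 (complete control).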

[4] = system: small flower umbrella sedge; experiment: Test B flooded paddy test; type: in vivo, Cyperus difformis; conditions: 1000 g ai/ha, visual rating, scale 0 to 100 (0 no effect, 100 complete control), 13 to 15 days
How it was run: as §3

ducksalad [5] = experiment: Test B flooded paddy test; type: in vivo, Heteranthera limosa; conditions: 1000 g ai/ha, visual rating, scale 0 to 100 (0 no effect, 100 complete control), 13 to 15 days
How it was run: as §3

barnyardgrass [6] = experiment: Test B flooded paddy test; type: in vivo, Echinochloa crus-galli; conditions: 1000 g ai/ha, visual rating, scale 0 to 100 (0 no effect, 100 complete control), 13 to 15 days
How it was run: as §3

rice [7] = experiment: Test C flooded paddy test; type: in vivo, Oryza sativa
How it was run: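 Plants were grown to the 1- to 4-leaf stage (2–18 cm) and then treated postemergence, or grown to the 2-leaf stage for the flooded paddy test. They were held in a greenhouse for 12 to 14 days and then scored by eye against controls, where 0 is no effect and 100 is complete control.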

[8] = system: smallflower umbrella sedge; experiment: Test C flooded paddy test; type: in vivo, Cyperus difformis
ducksalad [9] = experiment: Test C flooded paddy test; type: in vivo, Heteranthera limosa
barnyardgrass [10] = experiment: Test C flooded paddy test; type: in vivo, Echinochloa crus-galli
How it was run: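 Postemergence sprays applied to plants 2 to 18 cm tall (1- to 4-leaf stage); paddy species grown to 2-leaf stage under flooding. After 12 to 14 days in greenhouse, visual rating versus untreated controls on 0–100 scale (0 no effect, 100 complete control).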

[11] = 125 g ai/ha, 0 = no effect, 100 = complete control, preemergence
[12] = 500 g ai/ha, visual rating, 0 = no effect, 100 = complete control, preemergence
[13] = 62 g ai/ha, scale 0 to 100 (0 no effect, 100 complete control)
[14] = 125 g ai/ha, scale 0 to 100 (0 no effect, 100 complete control)
[15] = 250 g ai/ha, scale of 0 to 100, 0 is no effect, 100 is complete control
[16] = 500 g ai/ha, visual rating after 12 to 14 days, scale 0 to 100 (0 no effect, 100 complete control)

For `CCN(C)C(=O)c1cccc(NC(=O)c2sc(C(C)(C)C)nc2C)c1` [Compound 227], the “Barnyardgrass plant response rating (0 to 100 scale)” value (barnyardgrass [1]; 125 g ai/ha) was 0, the “Plant response rating, Barnyardgrass” value (barnyardgrass [1]; 500 g ai/ha, visual rating) was 60 and the “Surinam Grass plant response rating (0 to 100 scale)” value (Surinam grass; [11]) was 30. The “Plant response rating, Surinam Grass” value (Surinam grass; [12]) was 70, the “Surinam Grass plant response rating” value (Surinam grass; 125 g ai/ha, visual rating) was 10 and the “Surinam Grass plant response rating” value (Surinam grass; 500 g ai/ha, visual rating) was 30. For the same compound, the “Cocklebur plant response rating (0 to 100 scale)” value (cocklebur; [11]) was 0, the “Plant response rating, Cocklebur” value (cocklebur; [12]) was 0 and the “Cocklebur plant response rating” value (cocklebur; 125 g ai/ha, visual rating) was 20. For the same compound, the “Cocklebur plant response rating” value (cocklebur; 500 g ai/ha, visual rating) was 30, the “Corn plant response rating (0 to 100 scale)” value (corn; [11]) was 0 and the “Plant response rating, Corn” value (corn; [12]) was 50. The “Corn plant response rating” value (corn; 125 g ai/ha, visual rating) was 30, the “Corn plant response rating” value (corn; 500 g ai/ha, visual rating) was 40 and the “Crabgrass, Large plant response rating (0 to 100 scale)” value (large crabgrass; [11]) was 40. For the same compound, the “Plant response rating, Crabgrass, Large” value (large crabgrass; [12]) was 100, the “Crabgrass, Large plant response rating” value (large crabgrass; 125 g ai/ha, visual rating) was 30 and the “Crabgrass, Large plant response rating” value (large crabgrass; 500 g ai/ha, visual rating) was 30. The “Foxtail, Giant plant response rating (0 to 100 scale)” value (giant foxtail; [11]) was 10, the “Plant response rating, Foxtail, Giant” value (giant foxtail; [12]) was 70 and the “Foxtail, Giant plant response rating” value (giant foxtail; 125 g ai/ha, visual rating) was 10. The “Foxtail, Giant plant response rating” value (giant foxtail; 500 g ai/ha, visual rating) was 60, the “Lambsquarters plant response rating (0 to 100 scale)” value (lambsquarters; [11]) was 0 and the “Plant response rating, Lambsquarters” value (lambsquarters; [12]) was 90. The “Lambsquarters plant response rating” value (lambsquarters; 125 g ai/ha, visual rating) was 50, the “Lambsquarters plant response rating” value (lambsquarters; 500 g ai/ha, visual rating) was 70 and the “Morningglory plant response rating (0 to 100 scale)” value (morningglory; [11]) was 0. The “Plant response rating, Morningglory” value (morningglory; [12]) was 20, the “Morningglory plant response rating” value (morningglory; 125 g ai/ha, visual rating) was 50 and the “Morningglory plant response rating” value (morningglory; 500 g ai/ha, visual rating) was 60. The “Pigweed plant response rating (0 to 100 scale)” value (pigweed; [11]) was 0, the “Plant response rating, Pigweed” value (pigweed; [12]) was 100 and the “Pigweed plant response rating” value (pigweed; postemergence, 125 g ai/ha, visual rating, scale 0 (no effect) to 100 (complete control)) was 20. The “Rice plant response rating (0 to 100 scale)” value (rice [2]; 125 g ai/ha) was 10, the “Plant response rating, Rice” value (rice [2]; 500 g ai/ha, visual rating) was 70 and the “Velvetleaf plant response rating (0 to 100 scale)” value (velvetleaf; [11]) was 30. For the same compound, the “Plant response rating, Velvetleaf” value (velvetleaf; [12]) was 100, the “Velvetleaf plant response rating” value (velvetleaf; 125 g ai/ha, visual rating) was 20 and the “Velvetleaf plant response rating” value (velvetleaf; 500 g ai/ha, visual rating) was 70. For the same compound, the “Blackgrass plant response rating” value (blackgrass; 125 g ai/ha) was 20, the “Blackgrass plant response rating” value (blackgrass; 500 g ai/ha) was 30 and the “Wheat plant response rating” value (wheat; 125 g ai/ha) was 0. The “Wheat plant response rating” value (wheat; 500 g ai/ha) was 10, the “Oat, Wild plant response rating” value (wild oat; 125 g ai/ha) was 0 and the “Oat, Wild plant response rating” value (wild oat; 500 g ai/ha) was 0. For the same compound, the “Rice plant response rating” value (rice [3]) was 70, the “Sedge, Umbrella plant response rating” value [4] was 50 and the “Ducksalad plant response rating” value (ducksalad [5]) was 80. For the same compound, the “Barnyardgrass plant response rating” value (barnyardgrass [6]) was 70, the “Rice plant response rating” value (rice [7]; [13]) was 0 and the “Rice plant response rating” value (rice [7]; [14]) was 0. The “Rice plant response rating” value (rice [7]; [15]) was 25, the “Plant response rating, Rice” value (rice [7]; [16]) was 55 and the “Sedge, Umbrella plant response rating” value [8, 13] was 0. The “Sedge, Umbrella plant response rating” value [8, 14] was 0, the “Sedge, Umbrella plant response rating” value [8, 15] was 0 and the “Plant response rating, Sedge, Umbrella” value [8, 16] was 15. The “Ducksalad plant response rating” value (ducksalad [9]; [13]) was 0, the “Ducksalad plant response rating” value (ducksalad [9]; [14]) was 0 and the “Ducksalad plant response rating” value (ducksalad [9]; [15]) was 0. The “Plant response rating, Ducksalad” value (ducksalad [9]; [16]) was 55, the “Barnyardgrass plant response rating” value (barnyardgrass [10]; [13]) was 0 and the “Barnyardgrass plant response rating” value (barnyardgrass [10]; [14]) was 0. For the same compound, the “Barnyardgrass plant response rating” value (barnyardgrass [10]; [15]) was 0 and the “Plant response rating, Barnyardgrass” value (barnyardgrass [10]; [16]) was 0.
